Experiment [1] deals with recombinant human full-length Bruton Agammaglobulinemia Tyrosine Kinase (Btk) (Homo sapiens (Human), UniProt Q06187). Nature of the experiment: Btk Kinase Inhibition Assay (fluorescence polarization). It counts as biochemical. The settings on record: 10 μM ATP, 250 μM substrate, 60 minutes; Ki calculated from IC50 using the Cheng-Prusoff equation. As to the method: Kinase Binding Btk Kinase Inhibition Assay
Fluorescence polarization-based kinase assays were performed in 384 well-plate format using histidine tagged recombinant human full-length Bruton Agammaglobulinemia Tyrosine Kinase (Btk) and a modified protocol of the KinEASE™ FP Fluorescein Green Assay supplied from Millipore. Kinase reaction were performed at room temperature for 60 minutes in presence of 250 μM substrate, 10 μM ATP and variable test article concentrations. The reaction was stopped with EDTA/kinase detection reagents and the polarization measured on a Tecan 500 instrument. From the dose-response curve obtained, the IC50 was calculated using Graph Pad Prisms® using a non linear fit curve. The Km for ATP on each enzyme was experimentally determined and the Ki values calculated using the Cheng-Prusoff equation (see: Cheng Y, Prusoff W H. (1973) Relationship between the inhibition constant (K1) and the concentration of inhibitor which causes 50 percent inhibition (I50) of an enzymatic reaction”. Biochem Pharmacol 22 (23): 3099-108).

In experiment [2] the test system is Splenocytes (B cell proliferation stimulated with anti-IgM F(ab′)2). The experiment can be described thus: Splenic Cell Proliferation Assay. In kind it is cell-based. The following applies: Mus musculus, Splenocyte, 72 h, CD1 mouse splenocytes, 2.5 ug/ml anti-IgM F(ab′)2 for 72 h, Cell Titer-Glo; read-out: EC50 (nM), Inhibition of splenic cell proliferation. As to the method: Splenic Cell Proliferation Assay
Splenocytes were obtained from 6 week old male CD1 mice (Charles River Laboratories Inc.). Mouse spleens were manually disrupted in PBS and filtered using a 70 um cell strainer followed by ammonium chloride red blood cell lysis. Cells were washed, resuspended in Splenocyte Medium (HyClone RPMI supplemented with 10% heat-inactivated FBS, 0.5× non-essential amino acids, 10 mM HEPES, 50 uM beta mercaptoethanol) and incubated at 37° C., 5% CO2 for 2 h to remove adherent cells. Suspension cells were seeded in 96 well plates at 50,000 cells per well and incubated at 37° C., 5% CO2 for 1 h. Splenocytes were pre-treated in triplicate with 10,000 nM curves of Formula 1 compounds for 1 h, followed by stimulation of B cell proliferation with 2.5 ug/ml anti-IgM F(ab′)2 (Jackson ImmunoResearch) for 72 h. Cell proliferation was measured by Cell Titer-Glo Luminescent Assay (Promega). EC50 values (50% proliferation in the presence of compound as compared to vehicle treated controls) were calculated from dose response compound curves using GraphPad Prism Software.

For orientation: Ki means a measure of affinity in units of concentration, obtained from inhibition or displacement.

recombinant human full-length Bruton Agammaglobulinemia Tyrosine Kinase (Btk), sequence (Q06187 whole entry): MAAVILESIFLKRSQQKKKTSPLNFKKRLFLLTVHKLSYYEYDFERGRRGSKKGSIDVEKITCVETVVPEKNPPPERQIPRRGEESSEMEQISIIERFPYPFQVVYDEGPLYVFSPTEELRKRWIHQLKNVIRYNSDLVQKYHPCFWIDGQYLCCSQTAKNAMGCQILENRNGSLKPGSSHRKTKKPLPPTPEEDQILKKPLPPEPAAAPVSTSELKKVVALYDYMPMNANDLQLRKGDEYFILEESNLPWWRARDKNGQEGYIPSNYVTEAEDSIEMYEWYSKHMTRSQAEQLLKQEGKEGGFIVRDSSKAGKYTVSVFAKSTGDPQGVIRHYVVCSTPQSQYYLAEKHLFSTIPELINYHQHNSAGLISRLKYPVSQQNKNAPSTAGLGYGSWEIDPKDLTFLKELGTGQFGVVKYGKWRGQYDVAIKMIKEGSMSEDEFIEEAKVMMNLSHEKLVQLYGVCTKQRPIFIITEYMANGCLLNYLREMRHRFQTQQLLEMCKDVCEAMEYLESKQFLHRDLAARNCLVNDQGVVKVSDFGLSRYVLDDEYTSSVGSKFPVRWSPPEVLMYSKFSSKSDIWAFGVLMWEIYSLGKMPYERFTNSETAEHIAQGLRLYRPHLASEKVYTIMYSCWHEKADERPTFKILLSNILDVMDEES

Regarding `Nc1ncnc2c1c(-c1ccc(Oc3cc(F)cc(OCc4cncn4CCO)c3)cc1)nn2C1CCOCC1` [Compound 99], in experiment [1], the Ki was under 100 nM. The EC50 in experiment [2] lay within 100 to 1000 nM.
Take `Cc1ncc(COc2cc(F)cc(Oc3ccc(-c4nn(CCO)c5ncnc(N)c45)cc3)c2)s1` [Compound 81]: in experiment [1], the Ki was under 100 nM. Further, the EC50 in experiment [2] was under 100 nM.
On to `Cc1ncc(COc2cc(F)cc(Oc3ccc(-c4nn(CC(C)(C)O)c5ncnc(N)c45)cc3)c2)n1C` [Compound 121], for which the Ki in experiment [1] was under 100 nM. In addition, in experiment [2], the EC50 was in the range of 100 to 1000 nM.
The corresponding values for `Nc1ncnc2c1c(-c1ccc(Oc3cccc(OCc4ccccc4)c3)cc1)nn2[C@@H]1CCCNC1` [Compound 4] are under 100 nM and 100 to 1000 nM.
The like results for `N#Cc1ccccc1OCc1cccc(Oc2ccc(-c3nn(C4CCOCC4)c4ncnc(N)c34)cc2)c1` [Compound 22] were, in that order, under 100 nM and under 100 nM.
Consider `Cc1ncc(COc2cc(F)cc(Oc3ccc(-c4nn(C[C@@H]5CCCN5)c5ncnc(N)c45)cc3)c2)s1` [Compound 56], for which the EC50 in experiment [2] was in the range of 100 to 1000 nM.
For the compound `Nc1ncnc2c1c(-c1ccc(Oc3cccc(OCc4cncs4)c3)cc1)nn2CCN1CCOCC1` [Compound 44], the Ki in experiment [1] is under 100 nM. Further, in experiment [2], the EC50 was under 100 nM.
Take `Cc1ncc(COc2cc(F)cc(Oc3ccc(-c4nn(C(C)(C)C)c5ncnc(N)c45)cc3)c2)cn1` [Compound 129]: the Ki in experiment [1] was under 100 nM. Further, the EC50 in experiment [2] is under 100 nM.
Turning to `COCCn1cncc1COc1cc(F)cc(Oc2ccc(-c3nn(C4CCOCC4)c4ncnc(N)c34)cc2)c1` [Compound 83], the Ki in experiment [1] was under 100 nM. Moreover, the EC50 in experiment [2] was in the range of 100 to 1000 nM.
The like results for `Cc1ncc(COc2cc(F)cc(Oc3ccc(-c4nn(C5CCCC5)c5ncnc(N)c45)cc3)c2)n1C` [Compound 120] were, in that order, under 100 nM and under 100 nM.
The corresponding values for `Nc1ncnc2c1c(-c1ccc(Oc3cc(F)cc(CCc4cccnc4)c3)cc1)nn2C1CCOCC1` [Compound 80] are under 100 nM and 100 to 1000 nM.
The like results for `Cc1ncc(COc2cc(F)cc(Oc3ccc(-c4nn(CCCN5CCOCC5)c5ncnc(N)c45)cc3)c2)s1` [Compound 55] were, in that order, under 100 nM and under 100 nM.
Consider `Cn1cncc1COc1cc(F)cc(Oc2ccc(-c3nn(C4CCCC4)c4ncnc(N)c34)c(F)c2)c1` [Compound 92], for which, in experiment [1], the Ki is under 100 nM. The EC50 in experiment [2] is under 100 nM.
With `Nc1ncnc2c1c(-c1ccc(Oc3cc(F)cc(OCc4cncn4C4CCCC4)c3)cc1)nn2C1CCOCC1` [Compound 77], the inhibition constant Ki in experiment [1] is under 100 nM. For the same compound, the EC50 in experiment [2] is under 100 nM.
For `Cn1nc(-c2ccc(Oc3cccc(OCc4ccccc4C#N)c3)cc2)c2c(N)ncnc21` [Compound 30], the Ki in experiment [1] was under 100 nM. For the same compound, in experiment [2], the EC50 was under 100 nM.
On to `Nc1ncnc2c1c(-c1ccc(Oc3cc(F)cc(CCc4ccccn4)c3)cc1)nn2C1CCOCC1` [Compound 86], for which the Ki in experiment [1] is under 100 nM. In experiment [2], the EC50 fell in the range of 100 to 1000 nM.
The corresponding values for `Cc1ccc(COc2cc(F)cc(Oc3ccc(-c4nn(C5CCOCC5)c5ncnc(N)c45)c(F)c3)c2)cn1` [Compound 95] are under 100 nM and under 100 nM.
The corresponding values for `Nc1ncnc2c1c(-c1ccc(Oc3cccc(OCc4cncs4)c3)cc1)nn2CCN1CCCC1` [Compound 39] are under 100 nM and 100 to 1000 nM.
The corresponding values for `CC(=O)N1CCC[C@@H](n2nc(-c3ccc(Oc4cccc(COc5ccccc5C#N)c4)cc3)c3c(N)ncnc32)C1` [Compound 25] are under 100 nM and under 100 nM.
As for `Nc1ncnc2c1c(-c1ccc(Oc3cccc(OCc4cncs4)c3)cc1)nn2CCc1ccncc1` [Compound 41], the Ki in experiment [1] is under 100 nM. Also, the EC50 in experiment [2] was 100 to 1000 nM.
The corresponding values for `Nc1ncnc2c1c(-c1ccc(Oc3cccc(OCc4cncs4)c3)cc1)nn2CCc1ccccc1` [Compound 42] are under 100 nM and under 100 nM.
The corresponding values for `CC(=O)N1CCC[C@@H](n2nc(-c3ccc(Oc4cccc(OCc5ccccc5C(F)(F)F)c4)cc3)c3c(N)ncnc32)C1` [Compound 26] are under 100 nM and under 100 nM.
The corresponding values for `Nc1ncnc2c1c(-c1ccc(Oc3cccc(OCc4ccccc4)c3)cc1)nn2C1CCCC1` [Compound 2] are under 100 nM and 100 to 1000 nM.
Take `Cc1ncc(COc2cc(F)cc(Oc3ccc(-c4nn(C(C)C)c5ncnc(N)c45)cc3)c2)n1C` [Compound 123]: the Ki in experiment [1] is under 100 nM. In addition, the EC50 in experiment [2] was under 100 nM.
As for `Cc1ncc(COc2cc(F)cc(Oc3ccc(-c4nn(C(C)(C)C)c5ncnc(N)c45)cc3)c2)s1` [Compound 127], the Ki in experiment [1] is under 100 nM. In experiment [2], the EC50 was under 100 nM.
For the compound `CC(C)Cn1cncc1COc1cc(F)cc(Oc2ccc(-c3nn(C4CCOCC4)c4ncnc(N)c34)cc2)c1` [Compound 74], in experiment [1], the Ki is under 100 nM. Also, in experiment [2], the EC50 was in the range of 100 to 1000 nM.
The corresponding values for `Nc1ncnc2c1c(-c1ccc(Oc3cc(F)cc(OCc4cnccn4)c3)cc1)nn2C1CCOCC1` [Compound 69] are under 100 nM and under 100 nM.
`CCn1cncc1COc1cc(F)cc(Oc2ccc(-c3nn(C4CCOCC4)c4ncnc(N)c34)cc2)c1` [Compound 87]: in experiment [1], the Ki was under 100 nM. The EC50 in experiment [2] was under 100 nM.
With `Cc1ncc(COc2cc(F)cc(Oc3ccc(-c4nn(C)c5ncnc(N)c45)cc3)c2)s1` [Compound 61], the inhibitory constant (Ki) in experiment [1] is under 100 nM. For the same compound, the EC50 in experiment [2] is 100 to 1000 nM.
Take `[2H]C([2H])(Oc1cc(F)cc(Oc2ccc(-c3nn(C4CCOCC4)c4ncnc(N)c34)cc2)c1)c1ccc(C)nc1` [Compound 94]: the EC50 in experiment [2] is under 100 nM.
As to `Cc1ccc(COc2cc(F)cc(Oc3ccc(-c4nn(CCCO)c5ncnc(N)c45)cc3)c2)cn1` [Compound 96], in experiment [1], the Ki is under 100 nM. Also, the EC50 in experiment [2] was under 100 nM.
On to `Cc1ccc(COc2cc(F)cc(Oc3ccc(-c4nn(CC5(C)COC5)c5ncnc(N)c45)cc3)c2)cn1` [Compound 126], for which the Ki in experiment [1] is under 100 nM. Further, the EC50 in experiment [2] lay within 100 to 1000 nM.
The corresponding values for `Nc1ncnc2c1c(-c1ccc(Oc3cc(F)cc(OCc4ccccc4)c3)cc1)nn2C1CCOCC1` [Compound 63] are under 100 nM and under 100 nM.
The corresponding values for `Cc1ccc(COc2cc(F)cc(Oc3ccc(-c4nn(CC(C)(C)O)c5ncnc(N)c45)cc3)c2)cn1` [Compound 111] are under 100 nM and 100 to 1000 nM.
For the compound `Nc1ncnc2c1c(-c1ccc(Oc3cc(F)cc(OCc4cncn4CCOCc4ccccc4)c3)cc1)nn2C1CCOCC1` [Compound 97], in experiment [1], the Ki is under 100 nM. Besides, in experiment [2], the EC50 was in the range of 100 to 1000 nM.
The like results for `Cn1nc(-c2ccc(Oc3cccc(OCc4ccccc4C(F)(F)F)c3)cc2)c2c(N)ncnc21` [Compound 20] were, in that order, under 100 nM and under 100 nM.
The corresponding values for `Cc1ccc(COc2cc(F)cc(Oc3ccc(-c4nn(C5CCCC5)c5ncnc(N)c45)cc3)c2)cn1` [Compound 84] are under 100 nM and under 100 nM.
The corresponding values for `Nc1ncnc2c1c(-c1ccc(Oc3cccc(OCc4ccc(Cl)cc4)c3)cc1)nn2C1CCCC1` [Compound 9] are under 100 nM and 100 to 1000 nM.
With `CC(=O)n1nc(-c2ccc(Oc3cccc(OCc4ccccc4)c3)cc2)c2c(N)ncnc21` [Compound 45], the EC50 in experiment [2] lay in the range of 100 to 1000 nM.
With `CC(=O)N1CCC[C@@H](n2nc(-c3ccc(Oc4cccc(OCc5ccccc5C#N)c4)cc3)c3c(N)ncnc32)C1` [Compound 28], the Ki in experiment [1] is under 100 nM. Also, the EC50 in experiment [2] was under 100 nM.
For `Nc1ncnc2c1c(-c1ccc(Oc3cccc(OCc4cncs4)c3)cc1)nn2C1CCCNC1` (stereo not shown) [Compound 51], in experiment [1], the Ki is under 100 nM. Also, the EC50 in experiment [2] was under 100 nM.
Take `Nc1ncnc2c1c(-c1ccc(Oc3cccc(OCc4ccccc4)c3)cc1)nn2C1CCOCC1` [Compound 21]: in experiment [1], the Ki is under 100 nM. Further, the EC50 in experiment [2] is under 100 nM.
With `Cc1ncc(COc2cccc(Oc3ccc(-c4nn(C)c5ncnc(N)c45)cc3)c2)s1` [Compound 18], the Ki in experiment [1] is under 100 nM. Moreover, the EC50 in experiment [2] is under 100 nM.
As for `[2H]C([2H])(Oc1cc(F)cc(Oc2ccc(-c3nn(C4CCOCC4)c4ncnc(N)c34)cc2)c1)c1cnc(C)s1` [Compound 64], the Ki in experiment [1] is under 100 nM. Further, the EC50 in experiment [2] was under 100 nM.
With `CN1CCN(CCn2nc(-c3ccc(Oc4cccc(OCc5cncs5)c4)cc3)c3c(N)ncnc32)CC1` [Compound 40], the Ki in experiment [1] is under 100 nM. For the same compound, the EC50 in experiment [2] is 100 to 1000 nM.
Turning to `[2H]C([2H])(Oc1cc(F)cc(Oc2ccc(-c3nn(C4CCOCC4)c4ncnc(N)c34)c(F)c2)c1)c1cncn1C` [Compound 89], in experiment [2], the EC50 is under 100 nM.

The record behind these values is US9796716B2, “Selective inhibitors of Tec and Src protein kinase families” (Pharmascience, Inc., priority 2012, dated 2017).
